Test results reported in PMC3265452 (PLoS Neglected Tropical Diseases, 2012).
Where a name gives a salt, the structure may show the parent alone.

biological target: AaDOP2 (Aedes aegypti, UniProt H6D5H2); test: AaDOP2 antagonist screen of the LOPAC1280 library (HEK-CRELuc-Aadop2 cells, luminescence); format: cell-based; conditions: not given
Sequence (H6D5H2 1-476): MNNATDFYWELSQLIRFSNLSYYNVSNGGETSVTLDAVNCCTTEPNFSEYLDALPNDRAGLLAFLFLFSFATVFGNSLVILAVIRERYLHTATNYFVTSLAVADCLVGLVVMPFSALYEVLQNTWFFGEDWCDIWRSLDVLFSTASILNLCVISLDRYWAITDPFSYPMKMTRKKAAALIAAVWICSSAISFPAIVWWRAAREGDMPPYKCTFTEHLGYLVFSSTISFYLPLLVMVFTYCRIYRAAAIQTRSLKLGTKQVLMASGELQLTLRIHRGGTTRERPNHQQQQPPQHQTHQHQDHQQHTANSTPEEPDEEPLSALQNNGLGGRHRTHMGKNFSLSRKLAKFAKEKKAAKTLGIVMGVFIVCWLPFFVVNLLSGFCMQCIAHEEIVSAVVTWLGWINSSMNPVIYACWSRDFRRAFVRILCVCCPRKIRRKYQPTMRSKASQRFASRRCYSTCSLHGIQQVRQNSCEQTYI

Row | Compound | Compound effect (percent receptor signaling in presence of test compound, relative lux units relative to the SCH23390 control)
1 | C[C@H](Cc1ccccc1)Nc1ncnc2c1ncn2[C@@H]1O[C@H](CO)[C@@H](O)[C@H]1O [Compound 944, R(-)-N6-(2-Phenylisopropyl)adenosine] | 112
2 | CCCC(CCC)C(=O)O [Compound 945, Valproic acid sodium] | 85
3 | O=C(C1CCCCC1)N1CC(=O)N2CCc3ccccc3C2C1 (stereo not drawn) [Compound 947, Praziquantel] | 81
4 | CCCNCC(O)COc1ccccc1C(=O)CCc1ccccc1 (stereo not drawn) [Compound 948, Propafenone hydrochloride] | 74
5 | CC(=O)[C@H]1CC[C@H]2[C@@H]3CC[C@H]4C[C@H](O)CC[C@]4(C)[C@H]3C(=O)C[C@]12C [Compound 949, 5alpha-Pregnan-3alpha-ol-11,20-dione] | 89
6 | CN1C(C)(C)CCCC1(C)C [Compound 950, Pempidine tartrate] | 100
7 | NC(=O)CN1CCCC1=O [Compound 951, Piracetam] | 103
8 | C[C@@H]1O[C@@H]1P(=O)(O)O [Compound 952, Phosphomycin disodium] | 104
9 | COc1ccc(CN(CCN(C)C)c2ccccn2)cc1 [Compound 953, Pyrilamine maleate] | 59
10 | CN1C(C(=O)Nc2ccccn2)=C(O)c2ccccc2S1(=O)=O [Compound 954, Piroxicam] | 83
11 | CCCn1c(=O)[nH]c(=O)c2[nH]cnc21 [Compound 955, 3-n-Propylxanthine] | 93
12 | CNC[C@H](O)c1cccc(O)c1 [Compound 956, Phenylephrine hydrochloride] | 93
13 | OCCN1CCN(CCCN2c3ccccc3Sc3ccc(Cl)cc32)CC1 [Compound 957, Perphenazine] | 5
14 | C1CCc2nnnn2CC1 [Compound 958, Pentylenetetrazole] | 94
15 | CC[C@@H]1C(=O)OC[C@@H]1Cc1cncn1C [Compound 960, Pilocarpine nitrate] | 96
16 | CN(C)CCCN1c2ccccc2Sc2ccccc21 [Compound 961, Promazine hydrochloride] | 12
17 | NNCCc1ccccc1 [Compound 962, Phenelzine sulfate] | 93
18 | CN(C)CCC(c1ccccc1)c1ccccn1 (stereo not drawn) [Compound 963, Pheniramine maleate] | 91
19 | O=C(O)CP(=O)(O)O [Compound 964, Phosphonoacetic acid] | 84
20 | CCC1(c2ccccc2)C(=O)NCNC1=O [Compound 967, Primidone] | 94
21 | CN1CCN(CC(=O)N2c3ccccc3C(=O)Nc3cccnc32)CC1 [Compound 969, Pirenzepine dihydrochloride] | 114
22 | NCCCCN [Compound 970, Putrescine dihydrochloride] | 88
23 | Cc1ccc(N(CC2=NCCN2)c2cccc(O)c2)cc1 [Compound 971, Phentolamine mesylate] | 42
24 | CCC(=O)c1ccc2c(c1)N(CCCN(C)C)c1ccccc1S2 [Compound 972, Propionylpromazine hydrochloride] | 15

Row | Compound | Compound effect (percent receptor signaling in presence of test compound, relative lux units relative to the SCH23390 control)
25 | COc1cc2nc(N3CCN(C(=O)c4ccco4)CC3)nc(N)c2cc1OC [Compound 973, Prazosin hydrochloride] | 81
26 | O=C(CCc1ccc(O)cc1)c1c(O)cc(O)cc1O [Compound 974, Phloretin] | 99
27 | C#CCN(C)Cc1ccccc1 [Compound 975, Pargyline hydrochloride] | 95
28 | CCCCCCCCCCCCCC(=O)O[C@@H]1[C@@H](C)[C@@]2(O)[C@@H](C=C(CO)C[C@]3(O)C(=O)C(C)=C[C@@H]23)[C@@H]2C(C)(C)[C@]12OC(C)=O [Compound 976, Phorbol 12-myristate 13-acetate] | 12
29 | C=CC1=C(C)c2cc3[nH]c(cc4nc(cc5[nH]c(cc1n2)c(C)c5CCC(=O)O)C(CCC(=O)O)=C4C)c(C)c3C=C [Compound 978, Protoporphyrin IX disodium] | 86
30 | CCCCC1C(=O)N(c2ccccc2)N(c2ccccc2)C1=O [Compound 980, Phenylbutazone] | 96
31 | COc1ccc(C(=O)NCc2cccnc2)cc1C(=O)NCc1cccnc1 [Compound 981, Picotamide] | 84
32 | N[C@@H]1C[C@H]1c1ccccc1 [Compound 982, Tranylcypromine hydrochloride] | 73
33 | CC(C)NC[C@H](O)COc1cccc2ccccc12 [Compound 983, (S)-Propranolol hydrochloride] | 90
34 | CNCCCC1c2ccccc2C=Cc2ccccc21 [Compound 986, Protriptyline hydrochloride] | 18
35 | CCCN1C[C@H](CSC)C[C@@H]2c3cccc4[nH]cc(c34)C[C@H]21 [Compound 987, Pergolide methanesulfonate] | 53
36 | O=c1[nH]c2ccccc2c2ccccc12 [Compound 988, 6(5H)-Phenanthridinone] | 90
37 | CC(=O)[C@H]1CC[C@H]2[C@@H]3CC[C@H]4C[C@H](O)CC[C@]4(C)[C@H]3CC[C@]12C [Compound 989, 5alpha-Pregnan-3alpha-ol-20-one] | 73
38 | CC(C)[N+](C)(CCOC(=O)C1c2ccccc2Oc2ccccc21)C(C)C [Compound 990, Propantheline bromide] | 71
39 | O=S(=O)(O)C1CCNCC1 [Compound 991, Piperidine-4-sulphonic acid] | 105
40 | NC[C@@H]1O[C@H](O[C@H]2[C@@H](O)[C@H](O[C@@H]3[C@@H](O)[C@H](N)C[C@H](N)[C@H]3O[C@H]3O[C@H](CO)[C@@H](O)[C@H](O)[C@H]3N)O[C@@H]2CO)[C@H](N)[C@@H](O)[C@@H]1O [Compound 994, Paromomycin sulfate] | 96
41 | O.c1cnc2c(c1)ccc1cccnc12 [Compound 995, 1,10-Phenanthroline monohydrate] | 95
42 | CCN(CC)CCNC(=O)c1ccc(N)cc1 [Compound 996, Procainamide hydrochloride] | 100
43 | CCCNC(C)C(=O)Nc1ccccc1C (stereo not drawn) [Compound 997, Prilocaine hydrochloride] | 95
44 | CCCn1cnc2c1c(=O)n(CCCCC(C)=O)c(=O)n2C [Compound 998, Propentofylline] | 87
45 | CCCNC[C@H](O)COc1ccccc1C(=O)CCc1ccccc1.Cl [Compound 999, (S)-(-)-propafenone hydrochloride] | 77
46 | CN(C)C(=O)Oc1ccc[n+](C)c1 [Compound 1000, Pyridostigmine bromide] | 106
47 | CCN(CC)CCOC(=O)c1ccc(N)cc1 [Compound 1001, Procaine hydrochloride] | 96

same assay, conditions: 10 µM compound, 300 nM dopamine, 2 hr; hit = compound effect <20

Row | Compound | Compound effect (percent receptor signaling in presence of test compound, relative lux units relative to the SCH23390 control)
48 | CC[C@@H]1C(=O)OC[C@@H]1Cc1cncn1C.Cl [Compound 959, (+)-Pilocarpine hydrochloride] | 104%
49 | Br.Br.N=C(N)SCCc1cccc(CCSC(=N)N)c1 [Compound 977, 1,3-PBIT dihydrobromide] | 117%
50 | Br.Br.N=C(N)SCCc1ccc(CCSC(=N)N)cc1 [Compound 979, 1,4-PBIT dihydrobromide] | 120%
51 | N.S=C(S)N1CCCC1 [Compound 984, Ammonium pyrrolidinedithiocarbamate] | 85%
52 | O=C(O)/C=C\C(=O)O.c1cnc(N2CCN(Cc3ccc4c(c3)OCO4)CC2)nc1 [Compound 993, Piribedil maleate] | 120%

same assay, conditions: read-out: % of the SCH23390 effect (percent inhibition of receptor response relative to the SCH23390 control)

Row | Compound | inhibition at 10 µM
53 | OCCN1CCN(CCCN2c3ccccc3Sc3ccc(Cl)cc32)CC1 [Compound 957, Perphenazine] | 95%
54 | CN(C)CCCN1c2ccccc2Sc2ccccc21 [Compound 961, Promazine hydrochloride] | 88%
55 | CCC(=O)c1ccc2c(c1)N(CCCN(C)C)c1ccccc1S2 [Compound 972, Propionylpromazine hydrochloride] | 85%
56 | CCCCCCCCCCCCCC(=O)O[C@@H]1[C@@H](C)[C@@]2(O)[C@@H](C=C(CO)C[C@]3(O)C(=O)C(C)=C[C@@H]23)[C@@H]2C(C)(C)[C@]12OC(C)=O [Compound 976, Phorbol 12-myristate 13-acetate] | 88%
57 | CNCCCC1c2ccccc2C=Cc2ccccc21 [Compound 986, Protriptyline hydrochloride] | 82%
